Patent US20250326753A1, “DUAL CXCR4-BTK INHIBITORS” (X4 Pharmaceuticals, Inc., priority 2022, published 2025)
Read-outs that look alike come from different tables or passages of the source.

Columns and labels:
TXK = biological target: T1, TXK (Homo sapiens, UniProt P42681); test: PanQinase kinase panel: TXK; type: biochemical; conditions: read-out: INHIBITORY EFFECT @ 1 uM: TXK
T1 construct: purchased Reaction Biology Europe GmbH
T1 sequence (P42681 1-527): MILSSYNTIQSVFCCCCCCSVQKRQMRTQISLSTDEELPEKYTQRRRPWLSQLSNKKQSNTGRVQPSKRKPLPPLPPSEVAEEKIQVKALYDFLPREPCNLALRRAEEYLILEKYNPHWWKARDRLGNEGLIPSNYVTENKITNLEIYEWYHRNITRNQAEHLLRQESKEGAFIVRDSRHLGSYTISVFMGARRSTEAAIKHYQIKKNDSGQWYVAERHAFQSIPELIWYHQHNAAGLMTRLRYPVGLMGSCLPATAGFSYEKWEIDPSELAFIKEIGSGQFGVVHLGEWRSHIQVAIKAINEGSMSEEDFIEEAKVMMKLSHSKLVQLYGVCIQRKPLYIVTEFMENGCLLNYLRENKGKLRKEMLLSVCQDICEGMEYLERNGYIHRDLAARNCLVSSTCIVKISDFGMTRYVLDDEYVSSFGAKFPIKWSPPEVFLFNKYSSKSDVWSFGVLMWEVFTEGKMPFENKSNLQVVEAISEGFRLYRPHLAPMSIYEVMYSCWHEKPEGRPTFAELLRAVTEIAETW
Procedure: (§1) Screening procedures were performed in accordance with the company's on-line protocol [accessed on-line Mar.
(§2) For each kinase, the median value of the cpm of three wells was defined as “low control” (n=3). This value reflects unspecific binding of radioactivity to the plate in the absence of a protein kinase but in the presence of the substrate. Additionally, for each kinase the median value of the cpm of three other wells was taken as the “high control,” i.e. full activity in the absence of any inhibitor (n=3). The difference between high and low control of each enzyme was taken as 100% activity.
(§3) As part of the data evaluation the low control of each kinase was subtracted from the high control value as well as from their corresponding “compound values”. The residual activity (in %) for each compound well was calculated by using the following formula: Res. Activity (%)=100×[(signal of compound−low control)/(high control−low control)].

INSRR = biological target: T2, INSRR (Homo sapiens, UniProt P14616); test: PanQinase kinase panel: INSRR; type: biochemical; conditions: read-out: INHIBITORY EFFECT @ 1 uM: INSRR
T2 construct: purchased Reaction Biology Europe GmbH
T2 sequence (P14616 27-1297): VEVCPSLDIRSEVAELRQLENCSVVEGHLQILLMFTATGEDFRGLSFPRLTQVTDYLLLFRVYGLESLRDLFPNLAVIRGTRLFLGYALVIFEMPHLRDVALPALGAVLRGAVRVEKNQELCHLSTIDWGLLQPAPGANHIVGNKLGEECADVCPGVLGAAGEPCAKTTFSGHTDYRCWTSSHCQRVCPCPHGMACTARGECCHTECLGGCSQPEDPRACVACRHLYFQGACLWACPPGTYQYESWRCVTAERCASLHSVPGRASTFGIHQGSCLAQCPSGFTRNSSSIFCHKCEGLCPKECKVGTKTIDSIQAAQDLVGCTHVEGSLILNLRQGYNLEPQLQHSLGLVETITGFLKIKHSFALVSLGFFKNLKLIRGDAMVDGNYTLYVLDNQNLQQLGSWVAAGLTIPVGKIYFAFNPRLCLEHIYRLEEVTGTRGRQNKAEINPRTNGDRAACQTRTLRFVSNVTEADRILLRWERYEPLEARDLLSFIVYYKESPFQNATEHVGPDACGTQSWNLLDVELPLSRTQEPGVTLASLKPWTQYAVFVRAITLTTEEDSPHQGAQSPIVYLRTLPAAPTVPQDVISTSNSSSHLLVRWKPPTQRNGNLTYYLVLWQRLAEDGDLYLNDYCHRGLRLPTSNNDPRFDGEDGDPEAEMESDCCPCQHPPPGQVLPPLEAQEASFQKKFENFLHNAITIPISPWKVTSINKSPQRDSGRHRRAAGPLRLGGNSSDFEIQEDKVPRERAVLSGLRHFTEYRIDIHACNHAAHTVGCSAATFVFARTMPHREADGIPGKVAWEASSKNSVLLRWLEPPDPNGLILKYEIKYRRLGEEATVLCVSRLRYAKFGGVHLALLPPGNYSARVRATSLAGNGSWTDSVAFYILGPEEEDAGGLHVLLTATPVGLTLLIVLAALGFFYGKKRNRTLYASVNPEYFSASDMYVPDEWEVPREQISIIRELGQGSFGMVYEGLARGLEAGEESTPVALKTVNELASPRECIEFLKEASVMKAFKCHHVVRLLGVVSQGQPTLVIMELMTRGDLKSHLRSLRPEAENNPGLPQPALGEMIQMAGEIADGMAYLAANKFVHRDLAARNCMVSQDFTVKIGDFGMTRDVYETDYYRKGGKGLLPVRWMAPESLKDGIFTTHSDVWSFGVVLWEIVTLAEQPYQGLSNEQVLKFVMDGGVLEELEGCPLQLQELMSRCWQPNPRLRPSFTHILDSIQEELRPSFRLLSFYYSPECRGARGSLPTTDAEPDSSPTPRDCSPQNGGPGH
Procedure: as §1, §2, §3

FGFR2 = biological target: T3, FGFR2 (Homo sapiens, UniProt P21802); test: PanQinase kinase panel: FGFR2; type: biochemical; conditions: read-out: INHIBITORY EFFECT @ 1 uM: FGFR2
T3 construct: purchased Reaction Biology Europe GmbH
T3 sequence (P21802 22-821): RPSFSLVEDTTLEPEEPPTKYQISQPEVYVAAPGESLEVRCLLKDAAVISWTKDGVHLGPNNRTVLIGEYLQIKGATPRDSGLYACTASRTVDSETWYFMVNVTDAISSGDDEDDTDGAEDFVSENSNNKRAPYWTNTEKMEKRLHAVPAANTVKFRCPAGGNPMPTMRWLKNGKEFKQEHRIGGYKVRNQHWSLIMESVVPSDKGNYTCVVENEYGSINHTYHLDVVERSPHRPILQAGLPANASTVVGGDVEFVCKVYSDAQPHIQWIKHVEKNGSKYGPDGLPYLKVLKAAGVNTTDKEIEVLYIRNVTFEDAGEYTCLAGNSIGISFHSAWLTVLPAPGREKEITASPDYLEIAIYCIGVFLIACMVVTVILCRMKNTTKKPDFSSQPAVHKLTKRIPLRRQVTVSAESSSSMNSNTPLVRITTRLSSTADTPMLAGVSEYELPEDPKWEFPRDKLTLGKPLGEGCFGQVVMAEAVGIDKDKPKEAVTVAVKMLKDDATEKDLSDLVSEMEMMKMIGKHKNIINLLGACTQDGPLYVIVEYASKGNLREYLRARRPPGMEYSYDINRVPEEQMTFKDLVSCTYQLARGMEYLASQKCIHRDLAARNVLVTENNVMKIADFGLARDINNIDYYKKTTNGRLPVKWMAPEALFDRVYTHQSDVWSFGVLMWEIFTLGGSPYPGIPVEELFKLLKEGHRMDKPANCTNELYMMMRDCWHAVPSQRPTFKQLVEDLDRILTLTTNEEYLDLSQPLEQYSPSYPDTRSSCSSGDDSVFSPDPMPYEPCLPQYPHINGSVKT
Procedure: Screening procedures were performed in accordance with the company's on-line protocol [accessed on-line Mar. 25, 2022 at reaction biology.com/assay-protocol-panqinase]. Inhibitory activity of 50% or greater at concentrations of 1 μM are highlighted for all five compounds tested.
as §2, §3

MKK6 SDTD = biological target: T4, MKK6 SDTD (Homo sapiens, UniProt P52564, S207D/T211D); test: PanQinase kinase panel: MKK6 SDTD; type: biochemical; conditions: read-out: INHIBITORY EFFECT @ 1 uM: MKK6 SDTD
T4 construct: purchased Reaction Biology Europe GmbH
T4 sequence (P52564 1-334 S207D/T211D): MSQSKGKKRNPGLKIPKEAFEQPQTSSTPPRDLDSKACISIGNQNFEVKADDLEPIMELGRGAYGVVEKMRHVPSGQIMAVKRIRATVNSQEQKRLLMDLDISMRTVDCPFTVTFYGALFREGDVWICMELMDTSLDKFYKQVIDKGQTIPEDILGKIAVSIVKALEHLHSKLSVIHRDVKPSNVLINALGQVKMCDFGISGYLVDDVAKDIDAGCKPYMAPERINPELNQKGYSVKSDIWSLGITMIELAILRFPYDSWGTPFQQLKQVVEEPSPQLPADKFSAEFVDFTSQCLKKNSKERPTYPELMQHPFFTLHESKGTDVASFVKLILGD
Procedure: as §1, §2, §3

LYN = biological target: T5, LYN (Homo sapiens, UniProt P07948); test: PanQinase kinase panel: LYN; type: biochemical; conditions: read-out: INHIBITORY EFFECT @ 1 uM: LYN
T5 construct: purchased Reaction Biology Europe GmbH
T5 sequence (P07948 whole entry): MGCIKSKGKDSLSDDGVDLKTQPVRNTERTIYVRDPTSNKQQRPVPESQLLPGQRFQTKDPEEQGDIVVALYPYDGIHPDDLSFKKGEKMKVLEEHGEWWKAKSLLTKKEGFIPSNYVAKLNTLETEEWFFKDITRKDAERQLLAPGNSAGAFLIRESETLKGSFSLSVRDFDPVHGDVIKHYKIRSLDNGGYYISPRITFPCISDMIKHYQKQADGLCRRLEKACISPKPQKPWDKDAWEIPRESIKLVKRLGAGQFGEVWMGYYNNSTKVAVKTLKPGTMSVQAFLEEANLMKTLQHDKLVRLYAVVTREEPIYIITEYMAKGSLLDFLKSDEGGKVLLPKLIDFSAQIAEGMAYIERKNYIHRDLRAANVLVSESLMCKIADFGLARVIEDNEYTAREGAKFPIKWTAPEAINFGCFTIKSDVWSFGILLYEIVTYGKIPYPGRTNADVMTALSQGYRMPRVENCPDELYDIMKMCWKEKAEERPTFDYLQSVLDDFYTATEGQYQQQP
Procedure: as §1, §2, §3

ABL1 = biological target: T6, ABL1 (Homo sapiens, UniProt P00519); test: PanQinase kinase panel: ABL1; type: biochemical
T6 construct: purchased Reaction Biology Europe GmbH
T6 sequence (P00519 whole entry): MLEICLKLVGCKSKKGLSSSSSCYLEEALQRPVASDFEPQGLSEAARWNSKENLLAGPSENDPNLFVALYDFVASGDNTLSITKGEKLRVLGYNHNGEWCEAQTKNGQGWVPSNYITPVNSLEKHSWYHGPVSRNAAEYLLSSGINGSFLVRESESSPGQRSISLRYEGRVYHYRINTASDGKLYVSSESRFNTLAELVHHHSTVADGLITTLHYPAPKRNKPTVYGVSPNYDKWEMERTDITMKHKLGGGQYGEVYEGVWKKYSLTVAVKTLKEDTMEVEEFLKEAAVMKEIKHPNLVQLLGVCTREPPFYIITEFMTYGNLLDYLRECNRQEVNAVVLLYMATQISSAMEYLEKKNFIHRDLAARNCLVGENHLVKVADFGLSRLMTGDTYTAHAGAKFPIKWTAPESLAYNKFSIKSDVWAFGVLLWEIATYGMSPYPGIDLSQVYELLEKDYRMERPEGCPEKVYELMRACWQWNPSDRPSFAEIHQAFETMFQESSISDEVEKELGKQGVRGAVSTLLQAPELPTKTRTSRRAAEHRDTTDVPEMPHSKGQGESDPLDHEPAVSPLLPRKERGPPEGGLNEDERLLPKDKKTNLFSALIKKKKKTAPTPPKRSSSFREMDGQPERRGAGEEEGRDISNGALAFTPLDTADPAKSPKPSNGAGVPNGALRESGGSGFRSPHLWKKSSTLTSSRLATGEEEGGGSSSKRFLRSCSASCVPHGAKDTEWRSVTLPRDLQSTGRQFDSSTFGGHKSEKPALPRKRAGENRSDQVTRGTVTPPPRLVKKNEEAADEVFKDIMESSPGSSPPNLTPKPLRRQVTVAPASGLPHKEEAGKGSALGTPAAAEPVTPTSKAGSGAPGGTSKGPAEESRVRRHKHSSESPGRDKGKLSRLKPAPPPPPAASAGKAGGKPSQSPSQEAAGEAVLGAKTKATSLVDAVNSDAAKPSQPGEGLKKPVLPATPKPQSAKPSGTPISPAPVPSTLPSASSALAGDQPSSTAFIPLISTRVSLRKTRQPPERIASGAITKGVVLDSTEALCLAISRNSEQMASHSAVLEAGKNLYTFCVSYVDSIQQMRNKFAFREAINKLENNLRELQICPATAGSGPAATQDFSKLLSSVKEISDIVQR
Procedure: as §1, §2, §3

TRKB = biological target: T7, TRKB (Homo sapiens, UniProt Q16620); test: PanQinase kinase panel: TRKB; type: biochemical; conditions: read-out: INHIBITORY EFFECT @ 1 uM: TRKB
T7 construct: purchased Reaction Biology Europe GmbH
T7 sequence (Q16620 32-822): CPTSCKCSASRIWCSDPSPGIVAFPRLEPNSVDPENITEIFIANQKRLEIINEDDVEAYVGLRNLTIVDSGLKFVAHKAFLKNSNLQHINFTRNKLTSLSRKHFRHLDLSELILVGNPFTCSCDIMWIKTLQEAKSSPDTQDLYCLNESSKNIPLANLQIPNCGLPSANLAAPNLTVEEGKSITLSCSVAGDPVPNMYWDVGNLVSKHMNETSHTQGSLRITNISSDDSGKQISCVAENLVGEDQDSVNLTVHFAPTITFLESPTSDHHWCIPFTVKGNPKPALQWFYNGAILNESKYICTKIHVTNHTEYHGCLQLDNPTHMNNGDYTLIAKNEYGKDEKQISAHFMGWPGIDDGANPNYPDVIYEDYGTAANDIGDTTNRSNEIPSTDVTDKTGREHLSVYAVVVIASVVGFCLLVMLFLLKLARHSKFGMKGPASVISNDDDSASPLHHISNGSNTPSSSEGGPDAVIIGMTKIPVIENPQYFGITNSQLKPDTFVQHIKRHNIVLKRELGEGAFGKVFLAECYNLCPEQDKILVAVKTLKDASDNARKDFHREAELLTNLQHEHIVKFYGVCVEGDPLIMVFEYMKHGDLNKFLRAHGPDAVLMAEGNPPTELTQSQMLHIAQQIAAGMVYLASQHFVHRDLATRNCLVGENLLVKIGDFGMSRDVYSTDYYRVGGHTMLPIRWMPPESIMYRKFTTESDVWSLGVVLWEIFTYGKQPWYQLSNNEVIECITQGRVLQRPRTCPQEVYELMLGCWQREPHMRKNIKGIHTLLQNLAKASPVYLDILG
Procedure: as §1, §2, §3

T98G = test: Glioblastoma multiforme cell proliferation assay (CellTiter Glo), T98G; type: cell-based; conditions: Homo sapiens; for Emax: read-out: GBM-T-98G Cell Proliferation Emax %
Procedure: (§4) Inhibition of glioblastoma multiforme cell proliferation by compounds of the present invention was evaluated in U-87 MG (ATCC; Cat. No. HTB-14; Lot. No. 5018014) and T98G (ATCC; Cat. No. CRL-1690; Lot. No. 58267513) cell lines. These are adherent cell lines isolated from glioblastoma multiforme/malignant glioma, which express both CXCR4 and BTK (see Zhou et al. 2002 and Yue et al. 2017).
(§5) Cell viability was analyzed with the CellTiter Glo Cell assay kit ([…], Cat. No. G7573, Lot. No. 0000474103), according to the manufacturer's instruction.
(§6) U-87 MG and T98G cells were seeded onto 384-well opaque-walled clear bottom plates (Corning, Cat. No. 3765, Lot. No. 34319047) in EMEM (Invitrogen, Cat. No. 11095-080; Lot. No. 2276656) supplemented with 10% FBS (Invitrogen, Cat. No. 10099-141C, Lot. No. 2145169CP), at a seeding density of 1000 or 1200 cells per well, respectively, and then incubated in 5% CO2 at 37° C. overnight.
(§7) Compounds were prepared as stock solutions of 30 mM in DMSO (Sigma, Cat. No. 276855-1L. Lot. No. SHBL5610). Compounds were added to the cells, with 10 dose points in duplicates, in 3-fold dilution from a top concentration of 30 μM (final DMSO concentration […]), and incubated in 5% CO2 at 37° C. for 96 hr.
(§8) The 384-well plates were equilibrated at room temperature for approximately 30 min. 25 μl of CellTiter-Glo® Reagent was added to each well and mixed for 10 min on an orbital shaker to induce cell lysis. The 384-well plates were incubated at room temperature for 10 min to stabilize luminescent signal. Luminescence was detected on a PerkinElmer EnVision Multimode Plate Reader (measurement time 0.1s) as relative luminescence units (RLU).

U-87 MG = test: Glioblastoma multiforme cell proliferation assay (CellTiter Glo), U-87 MG; type: cell-based; conditions: Homo sapiens; for Emax: read-out: GBM-U87MG Cell Proliferation Emax %
Procedure: as §4, §5, §6, §7, §8

[1] = read-out: INHIBITORY EFFECT @ 1 uM: ABL1
[2] = Table 6A, cell viability, 96 hr, read-out: T98G IC50
[3] = Table 6A, cell viability, 96 hr, read-out: U-87 MG IC50

SMILES | inhibition at 1 µM (TXK) [%] | inhibition at 1 µM (INSRR) [%] | inhibition at 1 µM (FGFR2) [%] | inhibition at 1 µM (MKK6 SDTD) [%] | inhibition at 1 µM (LYN) [%] | inhibition at 1 µM (ABL1; [1]) [%] | inhibition at 1 µM (TRKB) [%] | further results
COc1ccc(F)cc1C(=O)NCc1ccc(-c2nn([C@@H](C)C(F)(F)F)c(N)c2C(N)=O)cc1 [LOXO-305, pirtobrutinib] | 50 to 69 | < 50 | < 50 | < 50 | < 50 | < 50 | 50 to 69 | –
Cc1cccnc1[C@H]1CCC[C@@H](c2ncccc2C)N1CCN1CCN(C(=O)c2ccc(-c3cc4c(-c5cccc(NC(=O)c6ccccc6)c5C)ncnc4[nH]3)cc2)CC1 [Compound I-10, N-(3-(6-(4-(4-(2-((2R,6S)-2,6-bis(3-methylpyridin-2-yl)piperidin-1-yl)ethyl)piperazine-1-carbonyl)phenyl)-7H-pyrrolo[2,3-d]pyrimidin-4-yl)-2-methylphenyl)benzamide] | < 50 | < 50 | < 50 | < 50 | < 50 | 70 to 89 | < 50 | Emax (T98G; Table 6B): 93%; IC50 (T98G; read-out: GBM-T-98G Cell Proliferation IC50 uM): 2.66 µM; inhibition at 1 µM (ABL1; at 1 μM, read-out: inhibition of ABL1): 50 to 89%; Emax (U-87 MG; Table 6B): 101%; IC50 (U-87 MG; read-out: GBM-U87MG Cell Proliferation IC50 uM): 0.76 µM
Cc1cc(-c2ccnc(Nc3cnn(CCN4[C@@H](c5ncccc5C)CCC[C@H]4c4ncccc4C)c3)n2)ccc1CNC(=O)N1CC(OC(C)C)C1 [Compound I-11] | – | – | – | – | – | – | – | Emax (T98G; Table 6B): 98%; IC50 (T98G; Table 6B, read-out: GBM-T-98G Cell Proliferation IC50): 3.28 µM; Emax (U-87 MG; Table 6B): 96%; IC50 (U-87 MG; Table 6B, read-out: GBM-U87MG Cell Proliferation IC50): 0.66 µM
Cc1cccnc1[C@H]1CCC[C@@H](c2ncccc2C)N1CCCCNC(=O)[C@@H]1CC[C@@H](Nc2ncnc3[nH]cc(C(=O)c4ccc(Oc5ccccc5)cc4Cl)c23)CO1 [Compound I-16] | – | – | – | – | – | – | – | IC50 (T98G; [2]): 2.2 µM; IC50 (U-87 MG; [3]): 1.3 µM
C=CC(=O)N1CCC([C@@H]2CCNc3c(C(N)=O)c(-c4ccc(Oc5ccccc5)cc4)nn32)CC1 [Zanubrutinib, (7S)-2-(4-phenoxyphenyl)-7-(1-prop-2-enoylpiperidin-4-yl)-4,5,6,7-tetrahydropyrazolo[1,5-a]pyrimidine-3-carboxamide] | 90 to 100 | < 50 | < 50 | < 50 | – | < 50 | < 50 | –
Cc1cccnc1[C@H]1CCC[C@@H](c2ncccc2C)N1CCCCNC(=O)OC[C@@H]1CC[C@@H](Nc2ncnc3[nH]cc(C(=O)c4ccc(Oc5ccccc5)cc4Cl)c23)CO1 [Compound I-18] | – | – | – | – | – | – | – | IC50 (T98G; [2]): 2.4 µM; IC50 (U-87 MG; [3]): 1.2 µM
O=C(c1ccc(Oc2ccccc2)cc1Cl)c1c[nH]c2ncnc(N[C@@H]3CC[C@@H](CO)OC3)c12 [ARQ-531, (2-chloro-4-phenoxyphenyl) (4-(((3R,6S)-6-(hydroxymethyl)tetrahydro-2H-pyran-3-yl)amino)-7H-pyrrolo[2,3-d]pyrimidin-5-yl) methanone] | 90 to 100 | 90 to 100 | 90 to 100 | 90 to 100 | 70 to 89 | – | < 50 | –
